“Also recorded” adds a separate entry of the source.
Legend:
CALR promoter = assay: CALR luciferase promoter reporter assay with TGF-β; type: cell-based, human; conditions: control-transfected HEK cells, TGFβ-1 0.5-10 ng/mL, 16 hours
Experimental: Calreticulin LightSwitch Promoter Reporter GoClones (RenSP, S721464), Empty vectors (S790005) and Cypridina TK Control constructs (pTK-Cluc, SN0322S) were obtained from SwitchGear Genomics (Menlo Park, Calif.) and transfected into HEK cells using Lipofectamine 2000 (Invitrogen). For knockdown assays, 5 pmol of anti-CDKN2B or control siRNA were co-transfected. For overexpression, CDKN2B (sc319536) and Rb expression plasmid (sc119971) and empty vector (pCMV6) were obtained from Origene and 100 ng of plasmid were co-transfected. Dual luciferase activity was measured with the LightSwitch Dual Assay System after 48 hours using a SpectraMax L luminometer (Molecular Devices), according to the manufacturer's instructions. In some experiments, media was changed to serum-free media after 24 hours of transfection. Studies were performed at baseline, and after the cells had been exposed to escalating doses of recombinant human TGFβ-1 (from Sigma, 0.5-10 ng/mL) for the final 16 hours prior to analysis. Relative luciferase activity (Renilla/Cypridina luciferase ratio) is expressed as the percentage change relative to the basal values obtained from control-transfected cells not exposed to TGF-β treatment.

CDKN2B = CDKN2B expression in untransfected HCASMC after exogenous TGF-β; type: cell-based, human; conditions: FIG. 9B
Experimental: Human coronary artery SMC (HCASMC, Lonza, Walkersville, Md., passage #3-6) were propagated in SmGM-2 growth media (Lonza) containing 5% FBS. Human THP-1 monocytic cells, human embryonic kidney (HEK-293) and RAW 264.7 macrophages (ATCC) were grown in DMEM-growth media containing 10% FBS. Primary vascular smooth muscle cells were harvested from the aortas of Cdkn2b^+/+ and Cdkn2b^−/− mice, as previously described. Primary activated macrophages were harvested from mice 72 hrs after intraperitoneal injection of 2 ml of 4% thioglycollate, as previously described. To induce growth arrest and the expression of differentiation genes, SMC were serum starved in basal media (SmBM) for 72 hours, according to conventional protocols.
PCR RNA was isolated from cell lysates using the miRNeasy Mini Kit (Qiagen, Valencia, Calif.) according to the manufacturer's protocol. RNA was isolated from the murine organ samples using the Trizol method (Invitrogen). RNA was quantified with the Nanodrop machine ([…], Santa Clara, Calif.) For quantitation of gene transcription, cDNA was generated with M-MuLV reverse transcriptase, and then amplified on the ABI PRISM 7900HT with commercially available TaqMan primers (Applied Biosystems, Foster City, Calif.) and normalized to 18S internal controls, as previously described. A list of the primers and probes used in these studies is provided in below.

CDKN2B-deficient SMCs = assay: Phagocytosis of CDKN2B-deficient SMCs by macrophages with anti-CD47 Ab; type: cell-based; conditions: FIG. 12
Excerpt: Implicating Cdkn2b in “efferocytosis”— the phagocytic clearance of apoptotic debris: an increase in the rate at which apoptotic debris was produced in this chronic disease model could not be observed (P=NS for TUNEL and Caspase assays at both Week 4 and Week 12). It was reasoned that loss of Cdkn2b might regulate the rate at which apoptotic debris is cleared in the developing atherosclerotic plaque. This process, known as “efferocytosis” (from the Greek meaning to carry the dead to the grave), was assessed with established in vitro flow cytometry-based co-culture phagocytosis assays.

Substance	CALR expression (promoter reporter activity) (CALR promoter)	CDKN2B expression (CDKN2B)	increase in phagocytosis of SMCs by Mϕ's (CDKN2B-deficient SMCs; CDKN2B-deficient SMCs) [%]	phagocytosis of CDKN2B-deficient SMCs by macrophages (CDKN2B-deficient SMCs)
TGF-β: recombinant human TGFβ-1 (from Sigma)	increased in response to TGF-β treatment in a dose-dependent manner; also recorded: increased by TGF-β in a dose-dependent manner	increased their expression of CDKN2B		
Hu5F9-G4: humanized anti-CD47 mAb engineered by CDR grafting of mouse sequences into a human IgG4 framework			~72	enables macrophages to phagocytose

— patent publication US10329354B2, “Modulation of efferocytosis pathways for treatment of atherosclerotic disease” (The Board of Trustees of the Leland Stanford Junior …, priority 2013, dated 2019)
